# Where two headings read alike, the source gives them in different places.
# Columns and labels:
# Assay in all cases: Eurofins kinase selectivity profile against 380 other human recombinant kinases (Table S2)
# Format in all cases: biochemical
# [1] = molecular target: T1, 380 human recombinant protein kinases (Homo sapiens, UniProt P15735); settings: PhKγ2(h), read-out: Inhibition rate
# T1 construct: purchased Eurofins (Celle Lévescault)
# T1 sequence (P15735 1-406): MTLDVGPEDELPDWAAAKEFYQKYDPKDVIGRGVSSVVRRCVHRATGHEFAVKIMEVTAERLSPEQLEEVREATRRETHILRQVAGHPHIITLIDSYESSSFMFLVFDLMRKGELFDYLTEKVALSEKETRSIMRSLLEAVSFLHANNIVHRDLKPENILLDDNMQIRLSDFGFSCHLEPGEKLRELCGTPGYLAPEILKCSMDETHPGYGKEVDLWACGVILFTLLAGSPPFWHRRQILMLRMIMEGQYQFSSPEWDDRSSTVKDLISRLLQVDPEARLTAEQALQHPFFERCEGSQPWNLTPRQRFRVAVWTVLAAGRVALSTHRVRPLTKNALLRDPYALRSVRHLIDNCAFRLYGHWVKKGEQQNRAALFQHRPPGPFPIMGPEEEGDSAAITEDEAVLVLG
# In short: (§1)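 Commercial selectivity screen of the test compound against a panel of 380 human recombinant protein kinases, run by an outside contractor at several compound concentrations to check whether its potency was specific for MK2.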
# [2] = molecular target: T2, 380 human recombinant protein kinases (Homo sapiens, UniProt P08631); settings: Hck(h), read-out: Inhibition rate
# T2 construct: purchased Eurofins (Celle Lévescault)
# T2 sequence (P08631 whole entry): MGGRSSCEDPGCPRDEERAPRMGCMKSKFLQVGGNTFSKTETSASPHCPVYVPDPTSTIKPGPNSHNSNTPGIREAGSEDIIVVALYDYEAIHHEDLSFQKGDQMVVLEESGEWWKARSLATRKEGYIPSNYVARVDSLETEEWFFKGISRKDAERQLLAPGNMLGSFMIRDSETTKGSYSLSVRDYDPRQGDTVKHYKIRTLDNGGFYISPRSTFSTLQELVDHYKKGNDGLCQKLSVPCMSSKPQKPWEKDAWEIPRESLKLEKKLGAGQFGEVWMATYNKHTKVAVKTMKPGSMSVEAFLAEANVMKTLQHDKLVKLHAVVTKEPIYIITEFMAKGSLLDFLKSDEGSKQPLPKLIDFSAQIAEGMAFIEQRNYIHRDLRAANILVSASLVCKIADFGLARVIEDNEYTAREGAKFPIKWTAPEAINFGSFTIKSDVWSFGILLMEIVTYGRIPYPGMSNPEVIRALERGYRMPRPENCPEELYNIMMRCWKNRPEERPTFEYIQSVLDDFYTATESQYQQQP
# In short: as §1
# [3] = molecular target: T3, 380 human recombinant protein kinases (Homo sapiens, UniProt P00519); settings: Abl(h), read-out: Inhibition rate
# T3 construct: purchased Eurofins (Celle Lévescault)
# T3 sequence (P00519 whole entry): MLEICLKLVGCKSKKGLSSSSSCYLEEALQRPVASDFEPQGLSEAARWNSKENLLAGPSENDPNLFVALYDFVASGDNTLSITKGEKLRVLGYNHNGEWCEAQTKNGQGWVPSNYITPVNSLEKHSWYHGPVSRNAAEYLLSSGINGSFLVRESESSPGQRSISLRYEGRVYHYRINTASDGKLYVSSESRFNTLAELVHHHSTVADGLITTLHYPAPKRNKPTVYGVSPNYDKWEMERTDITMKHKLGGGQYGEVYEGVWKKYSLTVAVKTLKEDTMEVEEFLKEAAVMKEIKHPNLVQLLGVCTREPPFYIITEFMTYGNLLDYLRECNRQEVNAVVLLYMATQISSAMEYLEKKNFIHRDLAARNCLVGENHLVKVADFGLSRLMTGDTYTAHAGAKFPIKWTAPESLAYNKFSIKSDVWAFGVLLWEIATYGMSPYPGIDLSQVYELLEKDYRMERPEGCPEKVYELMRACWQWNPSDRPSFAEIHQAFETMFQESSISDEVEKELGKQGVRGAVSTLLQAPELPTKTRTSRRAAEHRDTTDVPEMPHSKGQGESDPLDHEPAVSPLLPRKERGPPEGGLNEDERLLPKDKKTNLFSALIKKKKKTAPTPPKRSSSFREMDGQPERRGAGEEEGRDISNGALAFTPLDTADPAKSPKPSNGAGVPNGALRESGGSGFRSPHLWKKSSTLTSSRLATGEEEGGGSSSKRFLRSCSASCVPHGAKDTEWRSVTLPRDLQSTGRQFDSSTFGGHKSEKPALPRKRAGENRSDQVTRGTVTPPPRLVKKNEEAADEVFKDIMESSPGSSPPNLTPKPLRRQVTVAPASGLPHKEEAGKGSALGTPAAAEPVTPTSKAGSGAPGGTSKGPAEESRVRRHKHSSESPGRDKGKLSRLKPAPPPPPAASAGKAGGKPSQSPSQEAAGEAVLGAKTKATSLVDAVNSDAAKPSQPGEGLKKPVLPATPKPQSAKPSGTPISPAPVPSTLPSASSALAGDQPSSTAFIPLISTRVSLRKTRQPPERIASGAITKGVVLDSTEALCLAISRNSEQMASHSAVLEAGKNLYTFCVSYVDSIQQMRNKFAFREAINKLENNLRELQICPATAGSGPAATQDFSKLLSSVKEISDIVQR
# In short: as §1
# [4] = molecular target: T4, 380 human recombinant protein kinases (Homo sapiens, UniProt P42345); settings: read-out: Inhibition rate; for inhibition at 0.01 µM: 10 nM; for inhibition at 0.1 µM: 100 nM; for inhibition at 1 µM: 1000 nM
# T4 construct: purchased Eurofins (Celle Lévescault)
# In short: as §1
# [5] = molecular target: T5, 380 human recombinant protein kinases (Homo sapiens, UniProt P17948); settings: Flt1(h), read-out: Inhibition rate
# T5 construct: purchased Eurofins (Celle Lévescault)
# T5 sequence (P17948 27-1338): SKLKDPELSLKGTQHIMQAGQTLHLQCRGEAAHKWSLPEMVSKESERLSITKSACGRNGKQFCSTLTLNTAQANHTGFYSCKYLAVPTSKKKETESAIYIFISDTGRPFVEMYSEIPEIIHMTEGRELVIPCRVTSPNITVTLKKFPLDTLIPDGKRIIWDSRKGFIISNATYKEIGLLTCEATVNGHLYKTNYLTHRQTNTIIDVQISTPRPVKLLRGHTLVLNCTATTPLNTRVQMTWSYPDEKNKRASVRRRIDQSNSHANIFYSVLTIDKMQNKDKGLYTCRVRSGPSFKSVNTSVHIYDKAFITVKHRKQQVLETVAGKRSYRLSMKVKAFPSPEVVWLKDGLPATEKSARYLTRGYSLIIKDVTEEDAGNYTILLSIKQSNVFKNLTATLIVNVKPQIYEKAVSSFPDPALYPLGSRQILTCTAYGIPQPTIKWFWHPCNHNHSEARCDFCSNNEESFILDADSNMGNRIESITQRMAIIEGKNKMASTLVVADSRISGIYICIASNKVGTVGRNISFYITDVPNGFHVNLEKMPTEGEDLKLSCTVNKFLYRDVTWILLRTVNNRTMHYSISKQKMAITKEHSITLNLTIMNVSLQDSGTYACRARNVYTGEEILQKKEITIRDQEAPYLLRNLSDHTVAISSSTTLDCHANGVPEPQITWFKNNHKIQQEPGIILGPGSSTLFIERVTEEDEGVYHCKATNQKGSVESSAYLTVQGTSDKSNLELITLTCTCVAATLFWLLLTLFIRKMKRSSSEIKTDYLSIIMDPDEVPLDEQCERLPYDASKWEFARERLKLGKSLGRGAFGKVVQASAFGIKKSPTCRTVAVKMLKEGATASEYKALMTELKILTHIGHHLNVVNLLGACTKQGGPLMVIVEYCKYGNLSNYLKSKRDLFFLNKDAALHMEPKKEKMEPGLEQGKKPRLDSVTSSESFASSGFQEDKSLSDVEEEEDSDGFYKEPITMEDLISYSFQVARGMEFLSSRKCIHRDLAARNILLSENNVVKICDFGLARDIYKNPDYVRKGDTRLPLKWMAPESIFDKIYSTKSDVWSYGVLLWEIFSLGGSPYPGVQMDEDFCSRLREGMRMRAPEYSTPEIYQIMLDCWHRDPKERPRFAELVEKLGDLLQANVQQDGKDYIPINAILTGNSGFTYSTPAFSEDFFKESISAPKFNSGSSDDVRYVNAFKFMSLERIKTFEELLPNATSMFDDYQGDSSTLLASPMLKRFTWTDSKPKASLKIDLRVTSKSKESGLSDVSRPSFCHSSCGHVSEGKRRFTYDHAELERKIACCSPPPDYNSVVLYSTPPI
# In short: as §1
# [6] = molecular target: T6, 380 human recombinant protein kinases (Homo sapiens, UniProt Q00537); settings: CDK17/cyclinY(h), read-out: Inhibition rate
# T6 construct: purchased Eurofins (Celle Lévescault)
# T6 sequence (Q00537 whole entry): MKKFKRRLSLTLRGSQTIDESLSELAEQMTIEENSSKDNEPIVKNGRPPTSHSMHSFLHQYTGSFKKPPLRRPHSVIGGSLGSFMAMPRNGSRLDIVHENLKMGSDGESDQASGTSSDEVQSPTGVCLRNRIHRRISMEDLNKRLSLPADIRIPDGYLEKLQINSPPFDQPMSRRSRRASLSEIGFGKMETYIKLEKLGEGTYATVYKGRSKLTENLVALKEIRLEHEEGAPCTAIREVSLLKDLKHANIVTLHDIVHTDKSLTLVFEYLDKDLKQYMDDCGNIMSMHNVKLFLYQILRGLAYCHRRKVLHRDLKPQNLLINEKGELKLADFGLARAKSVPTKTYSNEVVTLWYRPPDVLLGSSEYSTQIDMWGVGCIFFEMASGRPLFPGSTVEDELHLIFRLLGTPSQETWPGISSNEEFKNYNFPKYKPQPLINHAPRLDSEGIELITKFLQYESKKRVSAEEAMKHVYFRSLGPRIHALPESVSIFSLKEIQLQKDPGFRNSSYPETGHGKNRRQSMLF
# In short: as §1
# [7] = molecular target: T7, 380 human recombinant protein kinases (Homo sapiens, UniProt O43781); settings: DYRK3(h), read-out: Inhibition rate
# T7 construct: purchased Eurofins (Celle Lévescault)
# T7 sequence (O43781 1-588): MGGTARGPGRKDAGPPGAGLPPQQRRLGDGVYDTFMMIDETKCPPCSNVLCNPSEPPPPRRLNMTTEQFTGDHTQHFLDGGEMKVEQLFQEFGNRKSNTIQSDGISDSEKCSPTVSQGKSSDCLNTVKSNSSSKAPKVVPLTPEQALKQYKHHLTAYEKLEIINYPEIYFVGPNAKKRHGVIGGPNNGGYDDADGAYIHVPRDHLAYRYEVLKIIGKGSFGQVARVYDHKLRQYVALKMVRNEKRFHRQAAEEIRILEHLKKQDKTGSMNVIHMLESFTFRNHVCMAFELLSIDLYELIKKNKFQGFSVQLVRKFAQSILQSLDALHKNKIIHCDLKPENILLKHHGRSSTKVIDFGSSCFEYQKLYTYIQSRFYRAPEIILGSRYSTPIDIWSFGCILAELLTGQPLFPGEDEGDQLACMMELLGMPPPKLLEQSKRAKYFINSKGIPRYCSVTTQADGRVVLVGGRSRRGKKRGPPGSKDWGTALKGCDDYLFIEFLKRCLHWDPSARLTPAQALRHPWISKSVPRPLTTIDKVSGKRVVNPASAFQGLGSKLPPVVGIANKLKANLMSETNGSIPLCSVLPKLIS
# In short: as §1
# [8] = molecular target: T8, 380 human recombinant protein kinases (Homo sapiens, UniProt P51617); settings: IRAK1(h), read-out: Inhibition rate
# T8 construct: purchased Eurofins (Celle Lévescault)
# T8 sequence (P51617 whole entry): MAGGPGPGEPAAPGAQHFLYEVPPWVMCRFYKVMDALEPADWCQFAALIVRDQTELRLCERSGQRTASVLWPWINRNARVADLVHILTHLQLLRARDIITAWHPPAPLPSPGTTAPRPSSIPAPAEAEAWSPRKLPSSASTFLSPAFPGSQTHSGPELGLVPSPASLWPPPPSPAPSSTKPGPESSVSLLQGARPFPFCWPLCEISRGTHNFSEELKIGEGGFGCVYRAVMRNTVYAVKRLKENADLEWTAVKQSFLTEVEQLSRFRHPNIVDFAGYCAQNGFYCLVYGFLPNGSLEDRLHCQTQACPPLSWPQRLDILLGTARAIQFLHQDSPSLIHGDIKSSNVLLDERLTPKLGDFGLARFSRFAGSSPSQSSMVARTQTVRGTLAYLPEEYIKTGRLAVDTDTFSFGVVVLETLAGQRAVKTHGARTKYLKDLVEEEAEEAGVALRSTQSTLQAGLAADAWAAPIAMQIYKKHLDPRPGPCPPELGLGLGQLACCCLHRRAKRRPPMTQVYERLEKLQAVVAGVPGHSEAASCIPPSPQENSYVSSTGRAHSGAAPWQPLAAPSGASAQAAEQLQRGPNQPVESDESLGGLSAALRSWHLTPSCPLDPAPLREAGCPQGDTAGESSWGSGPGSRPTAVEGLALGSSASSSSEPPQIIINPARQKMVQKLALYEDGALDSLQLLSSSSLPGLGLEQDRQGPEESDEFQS
# In short: as §1
# [9] = molecular target: T9, 380 human recombinant protein kinases (Homo sapiens, UniProt O95747); settings: OSR1(h), read-out: Inhibition rate
# T9 construct: purchased Eurofins (Celle Lévescault)
# In short: as §1
# [10] = molecular target: T10, 380 human recombinant protein kinases (Homo sapiens, UniProt P51817); settings: PrKX(h), read-out: Inhibition rate
# T10 construct: purchased Eurofins (Celle Lévescault)
# T10 sequence (P51817 1-358): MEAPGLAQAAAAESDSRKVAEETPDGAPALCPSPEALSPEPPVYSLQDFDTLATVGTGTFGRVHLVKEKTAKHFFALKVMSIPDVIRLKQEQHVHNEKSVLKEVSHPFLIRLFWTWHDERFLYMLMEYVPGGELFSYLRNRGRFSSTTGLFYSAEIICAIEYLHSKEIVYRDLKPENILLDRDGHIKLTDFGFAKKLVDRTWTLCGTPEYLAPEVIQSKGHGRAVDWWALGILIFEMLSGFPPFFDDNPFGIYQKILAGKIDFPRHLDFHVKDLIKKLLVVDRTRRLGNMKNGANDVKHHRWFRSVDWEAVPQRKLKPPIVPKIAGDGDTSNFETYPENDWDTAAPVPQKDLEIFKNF
# In short: as §1
# [11] = molecular target: T11, 380 human recombinant protein kinases (Homo sapiens, UniProt P31751); settings: PKBβ(h), read-out: Inhibition rate
# T11 construct: purchased Eurofins (Celle Lévescault)
# T11 sequence (P31751 whole entry): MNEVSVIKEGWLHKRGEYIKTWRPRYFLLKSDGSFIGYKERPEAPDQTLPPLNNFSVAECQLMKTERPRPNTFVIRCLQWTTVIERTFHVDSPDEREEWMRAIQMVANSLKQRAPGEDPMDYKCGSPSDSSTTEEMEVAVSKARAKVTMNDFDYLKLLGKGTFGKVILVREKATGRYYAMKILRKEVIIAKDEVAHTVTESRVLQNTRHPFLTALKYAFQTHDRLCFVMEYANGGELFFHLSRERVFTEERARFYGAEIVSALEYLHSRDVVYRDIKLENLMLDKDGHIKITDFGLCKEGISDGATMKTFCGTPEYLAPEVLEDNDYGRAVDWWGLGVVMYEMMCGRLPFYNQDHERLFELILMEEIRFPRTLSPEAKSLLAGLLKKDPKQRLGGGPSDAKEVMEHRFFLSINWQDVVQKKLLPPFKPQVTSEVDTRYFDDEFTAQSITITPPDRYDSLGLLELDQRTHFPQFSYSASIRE
# In short: as §1
structure (smiles),measurement,setting,value
C=CC(=O)Nc1cc(-c2cc(-c3cc4c([nH]3)CCNC4=O)ccn2)ccc1OC(F)(F)F [compound 11],inhibition at 0.01 µM,[1]; 10 nM,8%
same,inhibition at 0.1 µM,[1]; 100 nM,1%
same,inhibition at 1 µM,[1]; 1000 nM,2%
same,inhibition at 0.01 µM,[2]; 10 nM,-3%
same,inhibition at 0.1 µM,[2]; 100 nM,-7%
same,inhibition at 1 µM,[2]; 1000 nM,4%
same,inhibition at 0.01 µM,[3]; 10 nM,-9%
same,inhibition at 0.1 µM,[3]; 100 nM,-5%
same,inhibition at 1 µM,[3]; 1000 nM,9%
same,inhibition at 0.01 µM,[4]; mTOR(h),-1%
same,inhibition at 0.1 µM,[4]; mTOR(h),2%
same,inhibition at 1 µM,[4]; mTOR(h),7%
same,inhibition at 0.01 µM,[4]; mTOR/FKBP12(h),8%
same,inhibition at 0.1 µM,[4]; mTOR/FKBP12(h),12%
same,inhibition at 1 µM,[4]; mTOR/FKBP12(h),6%
same,inhibition at 0.01 µM,[5]; 10 nM,-24%
same,inhibition at 0.1 µM,[5]; 100 nM,-17%
same,inhibition at 1 µM,[5]; 1000 nM,-11%
same,inhibition at 0.01 µM,[6]; 10 nM,13%
same,inhibition at 0.1 µM,[6]; 100 nM,19%
same,inhibition at 1 µM,[6]; 1000 nM,25%
same,inhibition at 0.01 µM,[7]; 10 nM,34%
same,inhibition at 0.1 µM,[7]; 100 nM,83%
same,inhibition at 1 µM,[7]; 1000 nM,95%
same,inhibition at 0.01 µM,[8]; 10 nM,-1%
same,inhibition at 0.1 µM,[8]; 100 nM,3%
same,inhibition at 1 µM,[8]; 1000 nM,34%
same,inhibition at 0.01 µM,[9]; 10 nM,-1%
same,inhibition at 0.1 µM,[9]; 100 nM,5%
same,inhibition at 1 µM,[9]; 1000 nM,11%
same,inhibition at 0.01 µM,[10]; 10 nM,3%
same,inhibition at 0.1 µM,[10]; 100 nM,12%
same,inhibition at 1 µM,[10]; 1000 nM,11%
same,inhibition at 0.01 µM,[11]; 10 nM,1%
same,inhibition at 0.1 µM,[11]; 100 nM,3%
same,inhibition at 1 µM,[11]; 1000 nM,0%
